Series [1] has as its target T1, RpPduP (Rhodopseudomonas palustris, UniProt Q21A49, P164G/I199R/N203L/I222L/L268I/P269T/V271T/L423H, form not given).
T1 construct: gene RPC_1174; N-terminal 6xHis, pET45a, expressed in E. coli BL21(DE3), Ni-NTA
The series can be described thus: NADH oxidation, absorbance at […] nm. The series is classed as biochemical. As to conditions: GCR; saturating acetyl-CoA; pH 8.0 Hepes, 37 °C, 5 mM MgCl2; Table 2 note numbers mutations +2; read-out: Engineered GCR.

In series [2] the target is T2, RpPduP (Rhodopseudomonas palustris, UniProt Q21A49).
T2 construct: gene RPC_1174; N-terminal 6xHis, pET45a, expressed in E. coli BL21(DE3), Ni-NTA
T2 sequence (Q21A49 entry or part of it): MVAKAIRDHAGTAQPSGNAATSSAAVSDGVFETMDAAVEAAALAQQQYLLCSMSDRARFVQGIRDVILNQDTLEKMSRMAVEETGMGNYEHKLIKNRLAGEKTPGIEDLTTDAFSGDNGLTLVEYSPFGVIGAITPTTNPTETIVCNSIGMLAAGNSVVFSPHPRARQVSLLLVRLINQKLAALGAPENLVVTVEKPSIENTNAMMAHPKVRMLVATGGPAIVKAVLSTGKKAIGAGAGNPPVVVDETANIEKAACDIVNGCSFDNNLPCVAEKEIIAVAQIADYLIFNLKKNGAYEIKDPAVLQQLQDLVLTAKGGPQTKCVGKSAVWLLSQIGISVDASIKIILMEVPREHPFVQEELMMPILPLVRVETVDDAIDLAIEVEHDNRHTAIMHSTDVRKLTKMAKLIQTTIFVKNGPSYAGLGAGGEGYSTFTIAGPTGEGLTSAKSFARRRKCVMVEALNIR
In words: NADH oxidation, absorbance at […] nm. The series is classed as biochemical. Particulars: pH 8.0 Hepes, 37 °C, 5 mM MgCl2.

The target in series [3] is T1, RpPduP. The series can be described thus: NADPH oxidation, absorbance at […] nm. In kind it is biochemical. Particulars: GCR, pH 8.0 Hepes, 37 °C, 5 mM MgCl2, Table 2 note numbers mutations +2, read-out: Engineered GCR.
Series [4] has as its target T2, RpPduP. The series can be described thus: NADPH oxidation, absorbance at […] nm. In kind it is biochemical. As to conditions: pH 8.0 Hepes, 37 °C, 5 mM MgCl2.
Substrate in the series “purified protein”: CC(=O)O
The series can be described thus: purified protein. As to conditions: 1 mM CoA, 2.5 mM ATP, 5 mM MgCl2, 1 mM DTT, pH 8.0 Hepes, 37 °C.

T1 sequence (Q21A49 entry or part of it P164G/I199R/N203L/I222L/L268I/P269T/V271T/L423H, form open): as the sequence (Q21A49 entry or part of it) above, with P164G, I199R, N203L, I222L, L268I, P269T, V271T, L423H counted along it

`NC(=O)C1=CN([C@@H]2O[C@H](COP(=O)(O)OP(=O)(O)OC[C@H]3O[C@@H](n4cnc5c(N)ncnc54)[C@H](O)[C@@H]3O)[C@@H](O)[C@H]2O)C=CC1` [NADH]: the Km on RpPduP [1] was found to be 70 ± 10 µM; at RpPduP [2] (saturating acetyl-CoA) it was 120 ± 30 µM.
In the case of `NC(=O)C1=CN([C@@H]2O[C@H](COP(=O)(O)OP(=O)(O)OC[C@H]3O[C@@H](n4cnc5c(N)ncnc54)[C@H](OP(=O)(O)O)[C@@H]3O)[C@@H](O)[C@H]2O)C=CC1` [NADPH], the Km on RpPduP [3] (saturating glycolyl-CoA) was 240 ± 60 µM; on RpPduP [4] (saturating glycolyl-CoA), 370 ± 90 µM.
As for `CC(=O)SCCNC(=O)CCNC(=O)[C@H](O)C(C)(C)COP(=O)(O)OP(=O)(O)OC[C@H]1O[C@@H](n2cnc3c(N)ncnc32)[C@H](O)[C@@H]1OP(=O)(O)O` [acetyl-CoA], the Km is 220 ± 60 µM at RpPduP [3] (saturating NADPH) and 220 ± 20 µM at RpPduP [4] (saturating NADPH).
For the molecule `CC(C)(COP(=O)(O)OP(=O)(O)OC[C@H]1O[C@@H](n2cnc3c(N)ncnc32)[C@H](O)[C@@H]1OP(=O)(O)O)[C@@H](O)C(=O)NCCC(=O)NCCSC(=O)CO` [glycolyl-CoA], the figures for the Km on RpPduP [2] (saturating NADH) and on RpPduP [3] (saturating NADPH) were 220 ± 120 µM and 240 ± 20 µM, respectively.

B1: EcACS (Escherichia coli K-12) (protein)
chain: MSQIHKHTIPANIADRCLINPQQYEAMYQQSINVPDTFWGEQGKILDWIKPYQKVKNTSFAPGNVSIKWYEDGTLNLAANCLDRHLQENGDRTAIIWEGDDASQSKHISYKELHRDVCRFANTLLELGIKKGDVVAIYMPMVPEAAVAMLACARIGAVHSVIFGGFSPEAVAGRIIDSNSRLVITSDEGVRAGRSIPLKKNVDDALKNPNVTSVEHVVVLKRTGGKIDWQEGRDLWWHDLVEQASDQHQAEEMNAEDPLFILYTSGSTGKPKGVLHTTGGYLVYAALTFKYVFDYHPGDIYWCTADVGWVTGHSYLLYGPLACGATTLMFEGVPNWPTPARMAQVVDKHQVNILYTAPTAIRALMAEGDKAIEGTDRSSLRILGSVGEPINPEAWEWYWKKIGNEKCPVVDTWWQTETGGFMITPLPGATELKAGSATRPFFGVQPALVDNEGNPLEGATEGSLVITDSWPGQARTLFGDHERFEQTYFSTFKNMYFSGDGARRDEDGYYWITGRVDDVLNVSGHRLGTAEIESALVAHPKIAEAAVVGIPHNIKGQAIYAYVTLNHGEEPSPELYAEVRNWVRKEIGPLATPDVLHWTDSLPKTRSGKIMRRILRKIAAGDTSNLGDTSTLADPGVVEKLLEEKQAIAMPS
As usually defined, the kcat is the number of substrate molecules converted per active site and unit of time at saturation. For orientation: kcat/Km means the second-order rate constant that governs catalysis at low substrate concentration. B1: in the series “purified protein”, the Km turned out to be 87 ± 4 µM, the kcat was determined as 13.5 s⁻¹ and the kcat/Km worked out at 155000 M⁻¹ s⁻¹.

Values taken from PMC6298115, “Design and in vitro realization of carbon-conserving photorespiration” (Proceedings of the National Academy of Sciences of the …, 2018).
